In patent US9034862B2, “Compositions and methods for the treatment of cancer” (priority 2011, dated 2015):

How the values were obtained:
[1] = tested on: human prostate carcinoma PC3; experiment: MTT assay, PC3; assay type: cell-based
Description: Solutions of the platinum compounds were freshly prepared in sterile PBS before use and their concentrations quantitated by atomic absorption spectroscopy. Cells were seeded on a 96-well plate (1200 cells per well for cancer cells and 1800 cells per well for the normal lung fibroblasts) in 100 μL RPMI or DMEM media, and incubated for 24 h. […] The cells were then treated with 20 μL of 3-(4,5-dimethylthiazol-2-yl)-2,5-diphenyltetrazolium bromide (MTT) (5 mg/mL in PBS) and incubated for 4 h. The medium was removed, 100 μL of DMSO was added to the cells, and the absorbance of the purple formazan was recorded at 560 nm using a BioTek Synergy HT multi-detection microplate plate reader. Each condition was performed in triplicate and three independent experiments were carried out for each cell line.
Human prostate carcinoma (PC3) and human cervix carcinoma (HeLa) cells were obtained from the ATCC. The human lung carcinoma cell line A549 was kindly provided by David E. Root (Whitehead Institute for Biomedical Research). Cells were incubated at 37° C. in 5% CO2 and grown in RPMI (PC3) or DMEM (A549 and HeLa) medium supplemented with 10% fetal bovine serum and 1% penicillin/streptomycin. Cells were passaged every 3 to 4 days and restarted from the frozen stock upon reaching passage number 20.
Solutions of the platinum agents were freshly prepared in sterile PBS before use and the platinum content was quantitated by AAS. Cells were seeded on 96 well plates (1200 cells per well) in 100 μL RPMI or DMEM media\ and incubated for 24 hours. […] The cells were then treated with 20 μL of 3-(4,5-dimethylthiazol-2-yl)-2,5-diphenyltetrazolium bromide (MTT) (5 mg/mL in PBS) and incubated for 4 h. The medium was removed, 100 μL of DMSO were added to the cells, and the absorbance of the purple formazan was recorded at 570 nm using a BioTek Synergy HT multi-detection microplate plate reader. For each cell line, three independent experiments were carried out in triplicate.

[2] = tested on: GLuc expression in HT29 cells; experiment: Transcription assay, globally platinated pGLuc, HT29; assay type: cell-based, human
Description: Transfection of transcription probes into A549 and HT29 cells with the pGLuc plasmid was carried out using liposomal transfecting agents. Determination of expression levels was tested by Luciferase assays monitored by a luminometer (J. Am. Chem. Soc. 2010, 132, 7429-7435). A549 cells were plated in 96-well plates at 2,000 cells/well and HT29 cells were plated in 96-well plates at 6,000 cells/well. After 48 h incubation (at ˜30% confluence), cells were transfected with 50 ng of platinated plasmids in 25 μL Opti-MEM and 0.125 μL Lipofectamine 2000, and subsequently 50 μL of antibiotics-free DMEM supplemented with 10% FBS. After 2 h, the cells were washed with medium and 100 μL of fresh medium was added. The experiment was carried out in quadruplicate.
GLuc activity was monitored using a luminescence plate reader (Synergy 2, BioTek, Winooski, Vt., USA). A 10 μL volume of medium at different time points (12, 24, 36, 48, 60 h) was transferred into opaque white 96-well plates, and 25 μL of GLuc assay solution (10 μM colelenterazine (NanoLight Technologies, Pinetop, Ariz., USA) in 2.5 mM acidified methanol (100 mM HCl), buffer (10 mM Tris-HCl pH 7.8, 1 mM EDTA, 0.6 M NaCl)) was added by the automatic injector of the instrument.
In another embodiment, A549 or HT29 cells were transfected using the platinated transcription probes, and transcription levels were investigated by determining GLuc expression as measured by […] following addition of coelenterazine as a substrate for the exported enzyme. The emission intensities were normalized against unplatinated plasmids as a control. Transcription profiles were obtained by plotting normalized levels of GLuc expression against platination levels (Pt/plasmid ratio) at five different time points. […] An increase in D0 value at different time points represents restoration of transcription.

[3] = tested on: human bone sarcoma U2OS; experiment: MTT assay, U2OS; assay type: cell-based
Description: (§1) Human colon carcinoma HT29, human breast carcinoma MCF7, human bone sarcoma U2OS, human prostate carcinoma PC3, and human cervix carcinoma HeLa cells were obtained from the ATCC. A2780/CP70 cisplatin-resistant human ovarian cancer cells were kindly provided by Dr. Stephen B. Howell (Moores UCSD Cancer Center) and the human lung carcinoma cell lines A549 and normal lung fibroblast MRC5 by David E. Root (Whitehead Institute for Biomedical Research). Cells were incubated at 37° C. in 5% CO2 and grown in RPMI (HT29, A2780/CP70, and PC3) or DMEM (A549, MRC5, HeLa, MCF7, and U2OS) medium supplemented with 10% fetal bovine serum and 1% penicillin/streptomycin. Cells were passed every 3 to 4 days and restarted from a frozen stock upon reaching pass number 20.
(§2) Solutions of the platinum compounds were freshly prepared in sterile PBS before use and their concentrations quantitated by atomic absorption spectroscopy. […] The cells were then treated with 20 μL of 3-(4,5-dimethylthiazol-2-yl)-2,5-diphenyltetrazolium bromide (MTT) (5 mg/mL in PBS) and incubated for 4 h. The medium was removed, 100 μL of DMSO was added to the cells, and the absorbance of the purple formazan was recorded at 560 nm using a BioTek Synergy HT multi-detection microplate plate reader. Each condition was performed in triplicate and three independent experiments were carried out for each cell line.

[4] = tested on: Human colon carcinoma HT29; experiment: MTT assay, HT29; assay type: cell-based
Description: as §1, §2

[5] = tested on: 5′-dGMP; settings: 16 equiv 5′-dGMP, 37° C., PBS pH 7.4
Description: The 1-D ^1H NMR kinetic studies were performed in duplicate as a standard time-arrayed experiment using a variable delayed list. Incremented 1-D spectra were processed in exactly the same way and signals of aromatic amine ligands from platinum compounds were integrated. The relative concentrations of the platinum compound at each time point were calculated from peak integrals. […] Reactions of platinum compounds with 5′-dGMP were performed in NMR tubes containing 2 mM of the platinum compounds and 32 mM (16 equiv) of 5′-dGMP in 10 mM PBS buffer, D2O, pH*7.4 at 37° C.

[6] = tested on: normal lung fibroblast MRC5; experiment: MTT assay, MRC5; assay type: cell-based, human
Description: as §1, §2

[7] = equimolar N-AcMet, 37° C.
Description: NMR spectra were collected on a Varian 500 spectrometer equipped with a triple-resonance broadband inverse probe and a variable temperature unit. The 1-D ^1H NMR kinetic studies were performed in duplicate as a standard time-arrayed experiment using a variable delayed list. Incremented 1-D spectra were processed in exactly the same way and signals of aromatic amine ligands from platinum compounds were integrated. The relative concentrations of the platinum compound at each time point were calculated from peak integrals. […] Reactions of platinum compounds with N-AcMet were performed in NMR tubes containing 2 mM of the Pt complex and 2 mM (1 equiv) of N-AcMet in 10 mM PBS buffer, D2O, pH*7.4 at 37° C. […] Deuterated 3-(trimethylsilyl)propionic acid sodium salt (TMS-PFASS) was used as an internal standard. The pH* values are the measured pH values without correction for the effect of deuterium on the electrode.

[8] = tested on: 60 different human cancer cell lines; experiment: NCI-60 DTP Human Tumor Cell Line Screen; settings: single dose of 10 μM
[9] = tested on: pGLuc plasmid; experiment: Platination of pGLuc plasmid; assay type: biochemical
Description: The resulting mixtures were dialyzed (molecular weight cut-off 3.5 kDa) against ddH2O overnight at 4° C. with five changes of ddH2O. The rb values (bound Pt/nucleotide) were determined by UV/Vis and atomic absorption spectroscopy.
In one embodiment, the ratio of bound platinum per plasmid was determined by measuring the Pt concentration by atomic absorption spectroscopy and the DNA concentration by UV/Vis spectroscopy.

IC50 ([1]; Table 3, PC3 Prostate, 72-h incubation): 740 ± 40 nM | IC50 ([1]; Table 11 (Example 3), PC3 Prostate, 72 h): 600 ± 250 nM | IC50 ([3]; Table 3, U2OS Bone, 72-h incubation): 590 ± 40 nM | IC50 ([3]; Table 5, U2OS, 72-h incubation): 590 ± 40 nM | IC50 ([3]; Table 14, U2OS, MTT assay): 1050 ± 20 nM | IC50 ([4]; Table 3, HT29 Colorectal, 72-h incubation): 2020 ± 40 nM | IC50 ([4]; Table 5, HT29, 72-h incubation): 2020 ± 40 nM | IC50 ([4]; Table 14, HT29, MTT assay): 2020 ± 40 nM
Substance: cis-[Pt(NH3)2(phenanthridine)Cl]NO3 [phenanthriplatin]
D0 (Pt lesions per plasmid required to reduce transcription levels to 37% of control) ([2]; HT29, 12 h after transfection): 18.9 Pt/plasmid | D0 (Pt lesions per plasmid required to reduce transcription levels to 37% of control) ([2]; HT29, 48 h after transfection): 23.5 Pt/plasmid | transcription level (normalized against unplatinated plasmid) ([2]; HT29, 60 h, Pt/DNA ratio of […] for phenanthriplatin): 37.6% | D0 (Pt lesions per plasmid required to reduce transcription levels to 37% of control) ([2]; HT29, 60 h after transfection): 25.0 Pt/plasmid | pseudo-first order rate constant, reaction with 5′-dGMP [5]: 0.22 h⁻¹ | IC50 ([6]; Table 4, MRC5 normal lung fibroblast, 72 h incubation): 860 ± 60 nM | IC50 ([6]; Table 5, MRC5, 72-h incubation): 860 ± 60 nM | second-order rate constant, reaction with N-AcMet [7]: 0.00944 M⁻¹ s⁻¹ | growth inhibition of the 60 cell lines [8]: significant growth inhibition | Pt per plasmid ([9]; rf 0.0008, 16 h at 37° C.): 12.12 Pt per plasmid | rb (bound Pt/nucleotide) ([9]; rf 0.0008, 16 h at 37° C.): 0.0015 | Pt per plasmid ([9]; rf 0.0019, 16 h at 37° C.): 15.42 Pt per plasmid | rb (bound Pt/nucleotide) ([9]; rf 0.0019, 16 h at 37° C.): 0.0019 | Pt per plasmid ([9]; rf 0.0029, 16 h at 37° C.): 24.28 Pt per plasmid | rb (bound Pt/nucleotide) ([9]; rf 0.0029, 16 h at 37° C.): 0.0030 | Pt per plasmid ([9]; rf 0.0060, 16 h at 37° C.): 42.80 Pt per plasmid | rb (bound Pt/nucleotide) ([9]; rf 0.0060, 16 h at 37° C.): 0.0053
